According to ChEMBL document CHEMBL3232866, “Design of novel potent antihyperlipidemic agents with antioxidant/anti-inflammatory properties: exploiting phenothiazine's strong antioxidant activity” (J Med Chem, 2014):
The source made the active and inactive calls. The calls are words filed in the database; no cut-off is given here.

Tests used:
Mus musculus [1] = assay: Effect on food intake in chronic high-fat diet (2.5 w/w cholesterol, 0.5% w/w cholic acid, 10% w/w peanut oil) fed SKH-2 mouse at 56 umol/kg, ip bid for 30 days; format: ADME, organism-based; conditions: in vivo, 720 h
Mus musculus [2] = assay: Effect on body weight in chronic high-fat diet (2.5 w/w cholesterol, 0.5% w/w cholic acid, 10% w/w peanut oil) fed SKH-2 mouse at 56 umol/kg, ip bid for 30 days; format: ADME, organism-based; conditions: in vivo, 720 h
Mus musculus [3] = assay: Effect on blood glucose level in chronic high-fat diet (2.5 w/w cholesterol, 0.5% w/w cholic acid, 10% w/w peanut oil) fed SKH-2 mouse at 56 umol/kg, ip bid for 30 days; format: ADME, organism-based; conditions: in vivo, 720 h
Mus musculus [4] = assay: Antidyslipidemic activity in chronic high-fat diet (2.5 w/w cholesterol, 0.5% w/w cholic acid, 10% w/w peanut oil) fed SKH-2 mouse assessed as HDL/LDL ratio in plasma at 56 umol/kg, ip bid for 30 days measured on day 30 (reference value: 0.2 no unit); format: functional
[5] = Antioxidant activity in rat liver microsome membrane assessed as inhibition of lipid peroxidation after 45 mins by TBARS-based spectrophotometric assay; format: functional, microsomes
[6] = tested on: Radical scavenging activity; assay: Antioxidant activity assessed as DPPH radical scavenging activity up to 50 uM measured within 15 mins; format: functional
[7] = tested on: Radical scavenging activity; assay: Antioxidant activity assessed as DPPH radical scavenging activity after 30 mins; format: functional
[8] = molecular target: T1, Squalene synthase (Rattus norvegicus) (UniProt Q02769); assay: (§1) Inhibition of squalene synthase in rat liver microsomes assessed as decrease in conversion of [3H]FPP to squalene
T1 sequence (whole entry): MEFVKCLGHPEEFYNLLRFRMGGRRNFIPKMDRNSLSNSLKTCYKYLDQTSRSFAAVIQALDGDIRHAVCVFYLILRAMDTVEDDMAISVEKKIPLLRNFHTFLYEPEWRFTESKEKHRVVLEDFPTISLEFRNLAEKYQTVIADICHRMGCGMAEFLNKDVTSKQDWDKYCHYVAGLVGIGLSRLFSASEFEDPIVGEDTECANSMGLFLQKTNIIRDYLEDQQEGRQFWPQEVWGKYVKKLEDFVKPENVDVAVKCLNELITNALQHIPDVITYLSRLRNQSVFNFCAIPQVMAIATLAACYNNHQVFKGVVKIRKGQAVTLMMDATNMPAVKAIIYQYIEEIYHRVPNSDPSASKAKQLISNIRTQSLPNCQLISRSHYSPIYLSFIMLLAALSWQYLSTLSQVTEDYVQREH

Squalene synthase = molecular target: T2, Squalene synthase (Rattus norvegicus, UniProt Q02769); assay: as §1
T2 sequence (Q02769 whole entry): T1 sequence (whole entry)

[9] = molecular target: T3, Prostaglandin G/H synthase 1 (Bos taurus) (UniProt O62664); assay: Inhibition of bovine COX-1 assessed as PGF2-alpha formation using arachidonic acid as substrate at 20 uM by enzyme immunoassay
T3 sequence (whole entry): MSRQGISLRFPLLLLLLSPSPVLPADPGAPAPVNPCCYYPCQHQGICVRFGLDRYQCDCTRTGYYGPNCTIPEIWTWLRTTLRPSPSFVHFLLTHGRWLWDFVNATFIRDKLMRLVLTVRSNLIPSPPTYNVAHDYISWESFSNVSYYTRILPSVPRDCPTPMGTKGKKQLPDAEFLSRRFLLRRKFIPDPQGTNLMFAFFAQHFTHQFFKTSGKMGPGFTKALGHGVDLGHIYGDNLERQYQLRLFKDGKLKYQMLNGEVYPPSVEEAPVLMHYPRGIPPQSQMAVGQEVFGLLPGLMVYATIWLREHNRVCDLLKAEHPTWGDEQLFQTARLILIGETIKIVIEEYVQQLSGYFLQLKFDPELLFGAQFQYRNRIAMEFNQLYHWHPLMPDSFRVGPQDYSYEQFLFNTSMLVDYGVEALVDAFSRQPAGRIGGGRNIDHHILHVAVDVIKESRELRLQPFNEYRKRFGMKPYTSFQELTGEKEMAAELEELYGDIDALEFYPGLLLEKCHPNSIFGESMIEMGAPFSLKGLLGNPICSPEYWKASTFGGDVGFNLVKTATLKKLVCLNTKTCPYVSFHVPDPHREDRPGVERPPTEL

Mus musculus [10] = assay: Antidyslipidemic activity in chronic high-fat diet (2.5 w/w cholesterol, 0.5% w/w cholic acid, 10% w/w peanut oil) fed SKH-2 mouse assessed as decrease in total cholesterol level in plasma at 56 umol/kg, ip bid for 21 days; format: functional; conditions: SKH-2, Plasma, 504 h
Mus musculus [11] = assay: Antidyslipidemic activity in chronic high-fat diet (2.5 w/w cholesterol, 0.5% w/w cholic acid, 10% w/w peanut oil) fed SKH-2 mouse assessed as decrease in LDL level in plasma at 56 umol/kg, ip bid for 21 days; format: functional; conditions: SKH-2, Plasma, 504 h
Mus musculus [12] = assay: Antidyslipidemic activity in chronic high-fat diet (2.5 w/w cholesterol, 0.5% w/w cholic acid, 10% w/w peanut oil) fed SKH-2 mouse assessed as increase in HDL level in plasma at 56 umol/kg, ip bid for 30 days measured on day 30 relative to control; format: functional
Mus musculus [13] = assay: Antidyslipidemic activity in chronic high-fat diet (2.5 w/w cholesterol, 0.5% w/w cholic acid, 10% w/w peanut oil) fed SKH-2 mouse assessed as increase in HDL level in plasma at 56 umol/kg, ip bid for 30 days measured on day 30 relative to day 0; format: functional

IC50 [5]: 0.98 µM
IC50 [7]: 77 µM
inhibition [8]: Dose-dependent effect
IC50 (Squalene synthase): 3.6 µM
inhibition [9]: 67%
SMILES: CN1CC(O)(c2ccc3c(c2)Nc2ccccc2S3)Sc2ccccc21 (centres undefined)
Activity (Mus musculus [1]): Non-toxic
Activity (Mus musculus [2]): Non-toxic
Activity (Mus musculus [3]): Non-toxic
Ratio (Mus musculus [4]): 1.3
Activity [6]: Active
inhibition in vivo at 56 µmol/kg (Mus musculus [10]): 48%
inhibition in vivo at 56 µmol/kg (Mus musculus [11]): 80%
Activity (Mus musculus [12]): 32%
Activity (Mus musculus [13]): 100%
